# Test results: patent US8716326B2, “Isoindolinone derivatives, preparation method thereof and a pharmaceutical composition comprising same” (Korea Research Institute of Chemical Technology, priority 2009, dated 2014)
# Test system: Runx2
# Assay: Runx2 activity, 6xOSE2-Luc luciferase reporter in transfected C2C12 cells
# Assay type: cell-based, Mouse
# Details: 24 hrs; for fold induction at 2.5 µM / fold induction at 5 µM / fold induction at 10 µM / fold induction at 20 µM: Mus musculus, read-out: luciferase activity relative to control set as 1
# Method: Mouse premyoblast cell (C2C12 cell) was transfected using receptor vector 6xOSE2-Luc in order to investigate the activity of the amide compound of the present invention on Runx2.
# Specifically, the receptor vector 6xOSE2-Luc was prepared by inserting an artificial promoter linked by six tandem copies of the OSE2 (osteoblast specific element-2) into vector pGL3 (Promega; Madison, Wis., U.S.A.), and then, cloned into the C2C12 cell to be transfected (Kim et al., Journal of Cellular Biochemistry, 91: 1239-1247, 2004). The OSE2 is the binding site of Runx2 in the promoter of osteocalcin which is a bone marker.
# C2C12 cells (5,000 cells/well) were plated onto 96-well plates using 10% FBS (fetal bovine serum; Hyclone)-containing DMEM (Dulbecco's Modified Eagle's Medium), the medium was replaced with 5% FBS-containing DMEM after 24 hrs, and treated with each of the amide compounds obtained in Examples 1 to 94 at various concentrations of 2.5 μM, 5.0 μM, 10 μM, and 20 μM. As a control, dimethyl sulfoxide (DMSO) vehicle was applied to the cell in an amount same as that of the amide compound. After 24 hrs, the luciferase activity in the cell lysate was measured by using Dual-Luciferase Reporter Assay System (Promega). The luciferase activity of the amide compound of the present invention was calculated as a value relative to that observed for the control which was set as 1.
SMILES,fold induction at 2.5 µM (2.5 μM),fold induction at 5 µM (5.0 μM),fold induction at 10 µM (10 μM),fold induction at 20 µM (20 μM),luciferase activity relative to control set as 1 (2.5 μM),luciferase activity relative to control set as 1 (5.0 μM),luciferase activity relative to control set as 1 (10 μM),luciferase activity relative to control set as 1 (20 μM)
"O=C(CCCCCN1Cc2cc(-c3cccnc3)ccc2C1=O)NO [Example 54, N-hydroxy-6-(1-oxo-5-(pyridin-3-yl)isoindolin-2-yl)hexanamide]",1.5,2.9,8.9,19.8,,,,
"O=C(CCCCCN1Cc2cc(-c3ccc(C(F)(F)F)cc3)ccc2C1=O)NO [Example 55, 6-(5-(4-(trifluoromethyl)phenyl)-1-oxoisoindolin-2-yl)-N-hydroxyhexanamide]",2.7,3.7,5.5,13.3,,,,
"Nc1ccccc1NC(=O)c1ccc(CN2Cc3cc(Br)ccc3C2=O)cc1 [Example 56, N-(2-aminophenyl)-4-((5-bromo-1-oxoisoindolin-2-yl)methyl)benzamide]",1.1,1.1,1.1,1.1,,,,
"Nc1ccccc1NC(=O)c1ccc(CN2Cc3cc(-c4ccccc4)ccc3C2=O)cc1 [Example 57, N-(2-aminophenyl)-4-((1-oxo-5-phenylisoindolin-2-yl)methyl)benzamide]",7.3,8.9,10.9,10.7,,,,
"Nc1ccccc1NC(=O)c1ccc(CN2Cc3cc(-c4cncnc4)ccc3C2=O)cc1 [Example 58, N-(2-aminophenyl)-4-((1-oxo-5-(pyrimidin-5-yl)isoindolin-2-yl)methyl)benzamide]",11.7,17.1,21.6,21.6,,,,
"Nc1ccccc1NC(=O)c1ccc(CN2Cc3cc(-c4ccc(C(F)(F)F)cc4)ccc3C2=O)cc1 [Example 59, N-(2-aminophenyl)-4-((5-(4-(trifluoromethyl)phenyl)-1-oxoisoindolin-2-yl)methyl)benzamide]",3.3,4.5,4.1,3.8,,,,
"Nc1ccccc1NC(=O)c1ccc(CN2Cc3cc(-c4cc(F)cc(F)c4)ccc3C2=O)cc1 [Example 60, N-(2-aminophenyl)-4-((5-(3,5-difluorophenyl)-1-oxoisoindolin-2-yl)methyl)benzamide]",5.4,5.9,7,8.6,,,,
"Nc1ccccc1NC(=O)c1ccc(CN2Cc3cc(-c4cccnc4)ccc3C2=O)cc1 [Example 61, N-(2-aminophenyl)-4-((1-oxo-5-(pyridin-3-yl)isoindolin-2-yl)methyl)benzamide]",9.6,10.6,14.2,15.6,,,,
"Cc1cc(C)cc(-c2ccc3c(c2)CN(Cc2ccc(C(=O)Nc4ccccc4N)cc2)C3=O)c1 [Example 62, N-(2-aminophenyl)-4-((5-(3,5-dimethylphenyl)-1-oxoisoindolin-2-yl)methyl)benzamide]",4.6,5.8,5.5,6.6,,,,
COc1ccc(-c2ccc3c(c2)CN(Cc2ccc(C(=O)Nc4ccccc4N)cc2)C3=O)cc1 [Example 63],,,,,8.3 fold,10.3 fold,13.1 fold,14.2 fold
"COc1ccc(-c2ccc3c(c2)CN(Cc2ccc(C(=O)Nc4ccccc4N)cc2)C3=O)cc1OC [Example 64, N-(2-aminophenyl)-4-((5-(3,4-dimethoxyphenyl)-1-oxoisoindolin-2-yl)methyl)benzamide]",11.3,10.7,10.1,9.5,,,,
"N#Cc1ccc(-c2ccc3c(c2)CN(Cc2ccc(C(=O)Nc4ccccc4N)cc2)C3=O)cc1 [Example 65, N-(2-aminophenyl)-4-[5-(4-cyanophenyl)-1-oxo-2,3-dihydro-1H-isoindol-2-yl]methylbenzamide]",12.9,15.7,13.5,11.4,,,,
"Nc1ccccc1NC(=O)c1ccc(CN2Cc3cc(-c4ccc5c(c4)OCO5)ccc3C2=O)cc1 [Example 66, N-(2-aminophenyl)-4-((5-(benzo[d][1,3]dioxol-6-yl)-1-oxoisoindolin-2-yl)methyl)benzamide]",14.2,9.4,7.2,7.2,,,,
"Nc1ccccc1NC(=O)c1ccc(CN2Cc3cc(-c4ccc5ccccc5c4)ccc3C2=O)cc1 [Example 67, N-(2-aminophenyl)-4-((5-(naphthalen-2-yl)-1-oxoisoindolin-2-yl)methyl)benzamide]",1.4,2,2.9,6.1,,,,
"Cc1c(Br)cccc1C(=O)NCc1ccc(C(=O)Nc2ccccc2N)cc1 [Example 68, N-(2-aminophenyl)-4-((3-bromo-2-methylbenzamido)methyl)benzamide]",9,10.1,12.8,15.6,,,,
"Cc1c(C(=O)NCc2ccc(C(=O)Nc3ccccc3N)cc2)cccc1-c1ccccc1 [Example 69, N-(2-aminophenyl)-4-((2-methyl-3-phenyl-benzamido)methyl)benzamide]",13.5,22,29.2,30.6,,,,
"Cc1c(C(=O)NCc2ccc(C(=O)Nc3ccccc3N)cc2)cccc1-c1cncnc1 [Example 70, N-(2-aminophenyl)-4-((2-methyl-3-(5-pyrimidinyl)benzamido)methyl)benzamide]",8.9,20.6,30.1,40.2,,,,
"Cc1c(C(=O)NCc2ccc(C(=O)Nc3ccccc3N)cc2)cccc1-c1cccnc1 [Example 71, N-(2-aminophenyl)-4-((2-methyl-3-(3-pyridinyl)benzamido)methyl)benzamide]",18.7,34.8,36.5,32.7,,,,
"Cc1c(C(=O)NCc2ccc(C(=O)Nc3ccccc3N)cc2)cccc1-c1cccc(N)c1 [Example 72, N-(2-aminophenyl)-4-((2-methyl-3-(3-aminophenyl)benzmido)methyl)benzamide]",,,,,17.6 fold,29.8 fold,29.6 fold,31.4 fold
"COc1cc(C(=O)NCc2ccc(C(=O)Nc3ccccc3N)cc2)c(C)c(Br)c1OC [Example 73, N-(2-aminophenyl)-4-((3-bromo-4,5-dimethoxy-2-methylbenzamido)methyl)benzamide]",24.2,32.3,30.8,25.9,,,,
"COc1cc(C(=O)NCc2ccc(C(=O)Nc3ccccc3N)cc2)c(C)c(-c2ccccc2)c1OC [Example 74, N-(2-aminophenyl)-4-((2-methyl-3-phenyl-4,5-dimethoxy-benzamido)methyl)benzamide]",25.1,31.1,38.5,38.9,,,,
